{"source": "patent US20080039422A1", "about": "“Vitamin B12-Containing Compositions and Methods of Use” (Transition Therapeutics Inc., priority 2004, published 2008)", "assay": "Hydroxocobalamin-containing solutions", "format": "physicochemical", "protocol": "A variety of solutions containing hydroxocobalamin (HO-Cbl) were tested. The excipients tested in these studies were the same as those used above: (a) 15% ethanol; (b) 20% ethanol; (c) 20% propylene glycol; (d) 40% propylene glycol; (e) 15% ethanol and 20% propylene glycol; and (f) 20% ethanol and 40% propylene glycol. Here, however, three challenge amounts were tested (˜16, 40, and 81 mg/ml HO-Cbl) and the time course was slightly longer, with measurements being made on Day 3 and Day 5. The OH-Cbl was solubilized at room temperature, as it dissolved readily in the excipients tested. If necessary or desired, the solutions can be mixed by shaking briefly (using, for example, a vortex or other agitation for a few seconds (e.g., 5-20 seconds) to a minute or so (e.g., 1-3 minutes). Following suitable dilution, the absorbance at […] was measured."}
{"smiles": "C/C1=C2/[N-][C@H]([C@H](CC(N)=O)[C@@]2(C)CCC(=O)NC[C@@H](C)OP(=O)([O-])O[C@H]2[C@@H](O)[C@@H](n3cnc4cc(C)c(C)cc43)O[C@@H]2CO)[C@]2(C)N=C(/C(C)=C3N=C(/C=C4N=C1[C@@H](CCC(N)=O)C\\4(C)C)[C@@H](CCC(N)=O)[C@]\\3(C)CC(N)=O)[C@@H](CCC(N)=O)[C@]2(C)CC(N)=O.[Co+3].[OH-]", "note": "[OH-Cbl, hydroxocobalamin]", "values": [{"measurement": "concentrations of HO-Cbl versus control (water) values", "setting": "any of the solutions tested, any of the three challenge amounts", "result": "did not substantially exceed control values"}, {"measurement": "Conc of OH-Cbl", "setting": "challenge 16.18 mg/mL, ethanol 0%, PG 0%, Day 0", "result": 0, "unit": "µg/mL"}, {"measurement": "Conc of OH-Cbl", "setting": "challenge 16.18 mg/mL, ethanol 0%, PG 0%, Day 3", "result": 16830, "unit": "µg/mL"}, {"measurement": "Conc of OH-Cbl", "setting": "challenge 16.18 mg/mL, ethanol 0%, PG 0%, Day 5", "result": 16930, "unit": "µg/mL"}, {"measurement": "Conc of OH-Cbl", "setting": "challenge 16.18 mg/mL, ethanol 0%, PG 20%, Day 0", "result": 0, "unit": "µg/mL"}, {"measurement": "Conc of OH-Cbl", "setting": "challenge 16.18 mg/mL, ethanol 0%, PG 20%, Day 3", "result": 17100, "unit": "µg/mL"}, {"measurement": "Conc of OH-Cbl", "setting": "challenge 16.18 mg/mL, ethanol 0%, PG 20%, Day 5", "result": 17310, "unit": "µg/mL"}, {"measurement": "Conc of OH-Cbl", "setting": "challenge 16.18 mg/mL, ethanol 0%, PG 40%, Day 0", "result": 0, "unit": "µg/mL"}, {"measurement": "Conc of OH-Cbl", "setting": "challenge 16.18 mg/mL, ethanol 0%, PG 40%, Day 3", "result": 16780, "unit": "µg/mL"}, {"measurement": "Conc of OH-Cbl", "setting": "challenge 16.18 mg/mL, ethanol 0%, PG 40%, Day 5", "result": 17100, "unit": "µg/mL"}, {"measurement": "Conc of OH-Cbl", "setting": "challenge 16.18 mg/mL, ethanol 15%, PG 0%, Day 0", "result": 0, "unit": "µg/mL"}, {"measurement": "Conc of OH-Cbl", "setting": "challenge 16.18 mg/mL, ethanol 15%, PG 0%, Day 3", "result": 16670, "unit": "µg/mL"}, {"measurement": "Conc of OH-Cbl", "setting": "challenge 16.18 mg/mL, ethanol 15%, PG 0%, Day 5", "result": 17060, "unit": "µg/mL"}, {"measurement": "Conc of OH-Cbl", "setting": "challenge 16.18 mg/mL, ethanol 15%, PG 20%, Day 0", "result": 0, "unit": "µg/mL"}, {"measurement": "Conc of OH-Cbl", "setting": "challenge 16.18 mg/mL, ethanol 15%, PG 20%, Day 3", "result": 16940, "unit": "µg/mL"}, {"measurement": "Conc of OH-Cbl", "setting": "challenge 16.18 mg/mL, ethanol 15%, PG 20%, Day 5", "result": 17440, "unit": "µg/mL"}, {"measurement": "Conc of OH-Cbl", "setting": "challenge 16.18 mg/mL, ethanol 20%, PG 0%, Day 0", "result": 0, "unit": "µg/mL"}, {"measurement": "Conc of OH-Cbl", "setting": "challenge 16.18 mg/mL, ethanol 20%, PG 0%, Day 3", "result": 17050, "unit": "µg/mL"}, {"measurement": "Conc of OH-Cbl", "setting": "challenge 16.18 mg/mL, ethanol 20%, PG 0%, Day 5", "result": 17140, "unit": "µg/mL"}, {"measurement": "Conc of OH-Cbl", "setting": "challenge 16.18 mg/mL, ethanol 20%, PG 40%, Day 0", "result": 0, "unit": "µg/mL"}, {"measurement": "Conc of OH-Cbl", "setting": "challenge 16.18 mg/mL, ethanol 20%, PG 40%, Day 3", "result": 16250, "unit": "µg/mL"}, {"measurement": "Conc of OH-Cbl", "setting": "challenge 16.18 mg/mL, ethanol 20%, PG 40%, Day 5", "result": 16590, "unit": "µg/mL"}, {"measurement": "Conc of OH-Cbl", "setting": "challenge 40.45 mg/mL, ethanol 0%, PG 0%, Day 0", "result": 0, "unit": "µg/mL"}, {"measurement": "Conc of OH-Cbl", "setting": "challenge 40.45 mg/mL, ethanol 0%, PG 0%, Day 3", "result": 41900, "unit": "µg/mL"}, {"measurement": "Conc of OH-Cbl", "setting": "challenge 40.45 mg/mL, ethanol 0%, PG 0%, Day 5", "result": 41680, "unit": "µg/mL"}, {"measurement": "Conc of OH-Cbl", "setting": "challenge 40.45 mg/mL, ethanol 0%, PG 20%, Day 0", "result": 0, "unit": "µg/mL"}, {"measurement": "Conc of OH-Cbl", "setting": "challenge 40.45 mg/mL, ethanol 0%, PG 20%, Day 3", "result": 41680, "unit": "µg/mL"}, {"measurement": "Conc of OH-Cbl", "setting": "challenge 40.45 mg/mL, ethanol 0%, PG 20%, Day 5", "result": 41470, "unit": "µg/mL"}, {"measurement": "Conc of OH-Cbl", "setting": "challenge 40.45 mg/mL, ethanol 0%, PG 40%, Day 0", "result": 0, "unit": "µg/mL"}, {"measurement": "Conc of OH-Cbl", "setting": "challenge 40.45 mg/mL, ethanol 0%, PG 40%, Day 3", "result": 41790, "unit": "µg/mL"}, {"measurement": "Conc of OH-Cbl", "setting": "challenge 40.45 mg/mL, ethanol 0%, PG 40%, Day 5", "result": 41790, "unit": "µg/mL"}, {"measurement": "Conc of OH-Cbl", "setting": "challenge 40.45 mg/mL, ethanol 15%, PG 0%, Day 0", "result": 0, "unit": "µg/mL"}, {"measurement": "Conc of OH-Cbl", "setting": "challenge 40.45 mg/mL, ethanol 15%, PG 0%, Day 3", "result": 41150, "unit": "µg/mL"}, {"measurement": "Conc of OH-Cbl", "setting": "challenge 40.45 mg/mL, ethanol 15%, PG 0%, Day 5", "result": 41470, "unit": "µg/mL"}, {"measurement": "Conc of OH-Cbl", "setting": "challenge 40.45 mg/mL, ethanol 15%, PG 20%, Day 0", "result": 0, "unit": "µg/mL"}, {"measurement": "Conc of OH-Cbl", "setting": "challenge 40.45 mg/mL, ethanol 15%, PG 20%, Day 3", "result": 41040, "unit": "µg/mL"}, {"measurement": "Conc of OH-Cbl", "setting": "challenge 40.45 mg/mL, ethanol 15%, PG 20%, Day 5", "result": 42220, "unit": "µg/mL"}, {"measurement": "Conc of OH-Cbl", "setting": "challenge 40.45 mg/mL, ethanol 20%, PG 0%, Day 0", "result": 0, "unit": "µg/mL"}, {"measurement": "Conc of OH-Cbl", "setting": "challenge 40.45 mg/mL, ethanol 20%, PG 0%, Day 3", "result": 41580, "unit": "µg/mL"}, {"measurement": "Conc of OH-Cbl", "setting": "challenge 40.45 mg/mL, ethanol 20%, PG 0%, Day 5", "result": 41040, "unit": "µg/mL"}, {"measurement": "Conc of OH-Cbl", "setting": "challenge 40.45 mg/mL, ethanol 20%, PG 40%, Day 0", "result": 0, "unit": "µg/mL"}, {"measurement": "Conc of OH-Cbl", "setting": "challenge 40.45 mg/mL, ethanol 20%, PG 40%, Day 3", "result": 41360, "unit": "µg/mL"}, {"measurement": "Conc of OH-Cbl", "setting": "challenge 40.45 mg/mL, ethanol 20%, PG 40%, Day 5", "result": 41580, "unit": "µg/mL"}, {"measurement": "Conc of OH-Cbl", "setting": "challenge 80.90 mg/mL, ethanol 0%, PG 0%, Day 0", "result": 0, "unit": "µg/mL"}, {"measurement": "Conc of OH-Cbl", "setting": "challenge 80.90 mg/mL, ethanol 0%, PG 0%, Day 3", "result": 81020, "unit": "µg/mL"}, {"measurement": "Conc of OH-Cbl", "setting": "challenge 80.90 mg/mL, ethanol 0%, PG 0%, Day 5", "result": 80800, "unit": "µg/mL"}, {"measurement": "Conc of OH-Cbl", "setting": "challenge 80.90 mg/mL, ethanol 0%, PG 20%, Day 0", "result": 0, "unit": "µg/mL"}, {"measurement": "Conc of OH-Cbl", "setting": "challenge 80.90 mg/mL, ethanol 0%, PG 20%, Day 3", "result": 83800, "unit": "µg/mL"}, {"measurement": "Conc of OH-Cbl", "setting": "challenge 80.90 mg/mL, ethanol 0%, PG 20%, Day 5", "result": 82090, "unit": "µg/mL"}, {"measurement": "Conc of OH-Cbl", "setting": "challenge 80.90 mg/mL, ethanol 0%, PG 40%, Day 0", "result": 0, "unit": "µg/mL"}, {"measurement": "Conc of OH-Cbl", "setting": "challenge 80.90 mg/mL, ethanol 0%, PG 40%, Day 3", "result": 81870, "unit": "µg/mL"}, {"measurement": "Conc of OH-Cbl", "setting": "challenge 80.90 mg/mL, ethanol 0%, PG 40%, Day 5", "result": 82730, "unit": "µg/mL"}, {"measurement": "Conc of OH-Cbl", "setting": "challenge 80.90 mg/mL, ethanol 15%, PG 0%, Day 0", "result": 0, "unit": "µg/mL"}, {"measurement": "Conc of OH-Cbl", "setting": "challenge 80.90 mg/mL, ethanol 15%, PG 0%, Day 3", "result": 82730, "unit": "µg/mL"}, {"measurement": "Conc of OH-Cbl", "setting": "challenge 80.90 mg/mL, ethanol 15%, PG 0%, Day 5", "result": 82940, "unit": "µg/mL"}, {"measurement": "Conc of OH-Cbl", "setting": "challenge 80.90 mg/mL, ethanol 15%, PG 20%, Day 0", "result": 0, "unit": "µg/mL"}, {"measurement": "Conc of OH-Cbl", "setting": "challenge 80.90 mg/mL, ethanol 15%, PG 20%, Day 3", "result": 81230, "unit": "µg/mL"}, {"measurement": "Conc of OH-Cbl", "setting": "challenge 80.90 mg/mL, ethanol 15%, PG 20%, Day 5", "result": 80160, "unit": "µg/mL"}, {"measurement": "Conc of OH-Cbl", "setting": "challenge 80.90 mg/mL, ethanol 20%, PG 0%, Day 0", "result": 0, "unit": "µg/mL"}, {"measurement": "Conc of OH-Cbl", "setting": "challenge 80.90 mg/mL, ethanol 20%, PG 0%, Day 3", "result": 82090, "unit": "µg/mL"}, {"measurement": "Conc of OH-Cbl", "setting": "challenge 80.90 mg/mL, ethanol 20%, PG 0%, Day 5", "result": 80590, "unit": "µg/mL"}, {"measurement": "Conc of OH-Cbl", "setting": "challenge 80.90 mg/mL, ethanol 20%, PG 40%, Day 0", "result": 0, "unit": "µg/mL"}, {"measurement": "Conc of OH-Cbl", "setting": "challenge 80.90 mg/mL, ethanol 20%, PG 40%, Day 3", "result": 82940, "unit": "µg/mL"}, {"measurement": "Conc of OH-Cbl", "setting": "challenge 80.90 mg/mL, ethanol 20%, PG 40%, Day 5", "result": 82730, "unit": "µg/mL"}]}
